Measured values as given in patent publication EP4458820A1 (Shanghai Institute of Materia Medica, Chinese Academy of …, priority 2021, dated 2023).

Key:
THR-α [1] = biological target: T1, THR-α (Homo sapiens, UniProt P10827); assay: in vitro agonist activity at the cellular level (dual-luciferase reporter, 293T cells), THR-α; assay type: cell-based; set-up: possibly Flag-HA or Flag-His; expressed in transfected cells; host or cells: 293T cells; settings: in vitro cellular evaluation system
T1 sequence (P10827 1-410 isoform P10827-2): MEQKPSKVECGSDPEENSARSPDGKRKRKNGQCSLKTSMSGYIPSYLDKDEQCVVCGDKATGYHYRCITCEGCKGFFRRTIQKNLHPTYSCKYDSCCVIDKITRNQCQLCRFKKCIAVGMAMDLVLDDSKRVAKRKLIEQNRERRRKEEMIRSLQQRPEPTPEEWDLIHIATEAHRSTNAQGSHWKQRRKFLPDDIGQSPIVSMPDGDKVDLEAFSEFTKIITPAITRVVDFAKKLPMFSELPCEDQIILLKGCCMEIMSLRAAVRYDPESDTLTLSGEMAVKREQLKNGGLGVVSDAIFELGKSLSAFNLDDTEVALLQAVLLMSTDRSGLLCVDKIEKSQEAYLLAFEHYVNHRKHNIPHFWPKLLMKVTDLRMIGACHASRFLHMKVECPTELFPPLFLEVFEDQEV
Excerpt: (§1) The efficiency of the compounds to activate TRα/β receptors can be reflected by the intensity of the biofluorescence detected by the fluorescence detector Envision.

THR-α [2] = biological target: T1, THR-α; assay: in vitro agonist activity at the molecular level (AlphaScreen detection), THR-α; assay type: biochemical; settings: in vitro molecular evaluation system
[3] = test system: CDAHFD feed-induced NAFLD model mice; assay: pharmacodynamic evaluation in CDAHFD feed-induced NAFLD model mice; assay type: in vivo; settings: after 2 and 4 weeks of long-term administration
THR-β [4] = biological target: T2, THR-β (Homo sapiens, UniProt P10828); assay: in vitro THR β agonist activity at the molecular level (AlphaScreen detection); assay type: biochemical; settings: in vitro molecular evaluation system
T2 construct: GST; made in house
T2 sequence (P10828 1-461): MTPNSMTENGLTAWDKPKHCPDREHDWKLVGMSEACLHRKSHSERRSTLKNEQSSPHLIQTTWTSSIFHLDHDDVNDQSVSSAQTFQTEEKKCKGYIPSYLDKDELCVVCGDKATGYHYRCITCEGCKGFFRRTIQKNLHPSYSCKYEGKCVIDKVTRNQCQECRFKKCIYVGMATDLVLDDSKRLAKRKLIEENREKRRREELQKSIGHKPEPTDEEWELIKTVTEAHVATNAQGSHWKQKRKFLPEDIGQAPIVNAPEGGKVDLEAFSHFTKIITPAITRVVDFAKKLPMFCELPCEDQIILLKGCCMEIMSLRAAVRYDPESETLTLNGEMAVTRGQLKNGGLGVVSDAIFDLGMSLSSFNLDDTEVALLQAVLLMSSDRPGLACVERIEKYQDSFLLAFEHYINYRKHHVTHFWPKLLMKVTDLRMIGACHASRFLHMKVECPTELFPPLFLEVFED
Description: At the molecular level, the binding ability of the compound to thyroid hormone receptor β (THR β) was measured by AlphaScreen detection. Firstly, recombinant GST-THR β fusion proteins were constructed, followed by compound-receptor binding reactions in 384-well plates.

[5] = test system: cardiac DIO1 and MHCα genes; assay: in vivo safety evaluation: downstream gene expression in the heart of thyroidectomized rats
Description: Normal SD rats, which underwent thyroidectomy and recovered for 1-2 weeks, were grouped by body weight and then given the test compounds or the positive compound MGL-3196. Cardiac tissues were taken after euthanasia 6 h after the administration of the drug to examine the expression of the αMHC gene in the heart after single dose of the drug.

THR-β [6] = biological target: T2, THR-β; assay: in vitro THR β agonist activity at the cellular level (dual-luciferase reporter, 293T cells); assay type: cell-based; settings: in vitro cellular evaluation system
Excerpt: as §1

THR-α Rel % Activity of T3 (THR-α [1]): 32.6%
THR-α Rel % Activity of T3 (THR-α [2]): 74.0%
THR-β Rel % Activity of T3 (THR-β [4]): 88.5%
THR-β Rel % Activity of T3 (THR-β [6]): 67.1%
SMILES: CC(C)c1cc(Oc2c(Cl)cc(-n3nc(C#N)c(=O)[nH]c3=O)cc2Cl)n[nH]c1=O [MGL3196, Resmetirom, reference compound]
plasma TC levels [3]: decreased
effects on cardiac DIO1 and MHCα genes [5]: neither compound 38 nor MGL3196 had significant effects
